Experimental data from article PMC8065212, “The active form of the influenza cap-snatching endonuclease inhibitor baloxavir marboxil is a tight binding inhibitor” (The Journal of Biological Chemistry, 2021).
Several values for one entry are separate records, joined by “and”; a condition that tells them apart may be missing. Identical values can stand only once. Entries after “also recorded” stand apart in the source; their conditions may differ. Like-named read-outs stand apart in the source and are kept apart here.

Assays:
[1] = target: FluB-ht WT (recombinant influenza B heterotrimeric PA/PB1/PB2 polymerase, PA endonuclease) (Influenza B virus, UniProt Q5V8Z9); test: biochemical
FluB-ht WT [2] = assay type: biochemical; conditions: 75 nM BXA
FluB-ht WT [3] = assay type: biochemical; conditions: 75 nM BXA, 55 nM FluB-ht WT
FluB-ht = test: Michaelis-Menten kinetics of BXA inhibition; assay type: biochemical, Influenza B; conditions: 25 nM FluB-ht, substrate as indicated
Source text: Supplementary Figure S4. Michaelis-Menten kinetics of BXA inhibition. (A) Scheme detailing the experimental setup and representative data showing the effect of BXA on substrate utilization by FluB-ht. (B) Graphic representation and analysis of the data presented in panel A are shown on the left-hand side graph. The effects of increasing concentrations of BXA on kcat and Km are illustrated on the right-hand side graph. Data represents the average of two independent experiments. The final reaction conditions were as follows: 30 mM Tris-HCL pH 7.5, 25 mM NaCl, 5 mM MgCl2, 25 nM FluB-ht, 1.7 µM vRNA, 5% DMSO, BXA as indicated and 20-nt capped substrate as indicated. The indicated substrate concentrations were achieved by mixing 0.1 µM 20-nt radiolabeled capped substrate RNA with increasing amounts of unlabeled substrate. […] The data point at 2.1 µM was therefore not considered for kcat and Km measurements. […] Tight binding of enzyme and inhibitor depletes the concentration of free enzyme and the steady-state assumption is no longer valid.

[4] = system: cap-snatching endonuclease (PA); conditions: enzyme concentration not indicated; cited from earlier work
influenza infection = conditions: cited from earlier work
influenza = conditions: single dose, postexposure prophylaxis; placebo group 13.6%; cited from earlier work
influenza virus = conditions: cited from earlier work

## O=C1c2c(O)c(=O)ccn2N([C@@H]2c3ccccc3SCc3c2ccc(F)c3F)[C@@H]2COCCN12 [BXA, baloxavir acid]
[1]
  IC50: 112 nM
  Ki: 12 nM
[1]; 100, 300 and 500 nM 20-nt substrate, 55 nM FluB-ht WT (Fig. S1)
  dependence of IC50 on substrate concentration: independent within a narrow range of substrate concentrations
[1]; WT
  slope of plot of IC50 versus enzyme concentration: 0.56 and ~0.5
FluB-ht WT [2]; 55 nM FluB-ht WT, 1 hour preincubation
  inhibition of endonuclease activity by order of addition: inhibition was only observed under conditions where an E:I:Mg^2+ complex was preformed; also recorded: Preincubation E, I, and MgCl2 is required for inhibition
FluB-ht WT [2]; up to 120 min
  nuclease activity over longer periods of time after preformed E:I:Mg2+ complex: negligible
FluB-ht WT [3]
  preincubation time for maximal inhibition: ~30 min
FluB-ht
  effects of increasing concentrations of BXA on kcat and Km: reduction in kcat and constant Km values
[4]
  IC50: ~2 nM

## COC(=O)OCOc1c2n(ccc1=O)N([C@@H]1c3ccccc3SCc3c1ccc(F)c3F)[C@@H]1COCCN1C2=O [BXM, Baloxavir marboxil]
Influenza infection; human, in vivo
  reduction in time until symptom resolution: 20–25%
influenza
  household transmissions: 1.9%
Influenza virus
  EC50: low nanomolar range

## CCOC(=O)C1=C[C@@H](OC(CC)CC)[C@H](NC(C)=O)[C@@H](N)C1 [oseltamivir]
Influenza infection
  reduction in time until symptom resolution: 20–25%
